The results in this text go back to US20240228504A1, “SUBSTITUTED TRICYCLIC AMIDES, ANALOGUES THEREOF, AND METHODS USING SAME” (Arbutus Biopharma Corporation, priority 2020, published 2024).

A word on the pEC50: it is −log10 of the EC50, conventionally taken in molar units.

Structures are written as SMILES. pEC50: −log10 of the molar value.

The subject of the first assay is HBV rcDNA in HepDE19 cells. The experiment in a line: HepDE19 assay with bDNA quantitation of HBV rcDNA. It counts as cell-based, hepatitis B virus. To be noted: HepDE19 assay, inhibition of rcDNA formation, bDNA quantitation; read-out: DE-19bDNA EC50.
Regarding `CN(C(=O)c1cc(F)c(Cl)c(F)c1)C1CNCc2[nH]c(=O)c3cc(F)c(F)cc3c21` (single isomer, unassigned) [Compound 169, 4-Chloro-N-(8,9-difluoro-6-oxo-1,2,3,4,5,6-hexahydrobenzo[c][1,7]naphthyridin-1-yl)-3,5-difluoro-N-methylbenzamide], the pEC50 was 7.40.

Regarding `CN(C(=O)c1cc(F)c(Br)c(F)c1)C1CNCc2[nH]c(=O)c3cc(F)ccc3c21` (single isomer, unassigned) [Compound 170, 4-Bromo-3,5-difluoro-N-(8-fluoro-6-oxo-1,2,3,4,5,6-hexahydrobenzo[c][1,7]naphthyridin-1-yl)-N-methylbenzamide], the pEC50 is 4.66. In the case of `CN(C(=O)c1cc(F)c(Br)c(F)c1)C1CNCc2[nH]c(=O)c3cc(F)ccc3c21` (single isomer, unassigned) [Compound 171, 4-Bromo-3,5-difluoro-N-(8-fluoro-6-oxo-1,2,3,4,5,6-hexahydrobenzo[c][1,7]naphthyridin-1-yl)-N-methylbenzamide], the pEC50 is 6.29. Same read-out and setting: for `CN(C(=O)c1cc(F)c(Cl)c(F)c1)C1COCc2[nH]c(=O)c3cc(F)ccc3c21` (single isomer, unassigned) [Compound 174, 4-Chloro-3,5-difluoro-N-(8-fluoro-6-oxo-2,4,5,6-tetrahydro-1H-pyrano[3,4-c]isoquinolin-1-yl)-N-methylbenzamide] the value was 5.29.

In the case of `CN(C(=O)c1cc(F)c(Cl)c(F)c1)C1COCc2[nH]c(=O)c3cc(F)ccc3c21` (single isomer, unassigned) [Compound 175, 4-Chloro-3,5-difluoro-N-(8-fluoro-6-oxo-2,4,5,6-tetrahydro-1H-pyrano[3,4-c]isoquinolin-1-yl)-N-methylbenzamide], the negative-log EC50 (pEC50) is 7.52.

As to `CN(C(=O)c1cc(F)c(C(F)F)c(F)c1)C1COCc2[nH]c(=O)c3cc(F)ccc3c21` (single isomer, unassigned) [Compound 178, 4-(Difluoromethyl)-3,5-difluoro-N-(8-fluoro-6-oxo-1,4,5,6-tetrahydro-2H-pyrano[3,4-c]isoquinolin-1-yl)-N-methylbenzamide], the pEC50 was 5.13. Same read-out and setting: for `CN(C(=O)c1cc(F)c(C(F)F)c(F)c1)C1COCc2[nH]c(=O)c3cc(F)ccc3c21` (single isomer, unassigned) [Compound 179, 4-(Difluoromethyl)-3,5-difluoro-N-(8-fluoro-6-oxo-1,4,5,6-tetrahydro-2H-pyrano[3,4-c]isoquinolin-1-yl)-N-methylbenzamide] the value was 7.30; for `CN(C(=O)c1cc2c(C(F)F)cccc2[nH]1)C1COCc2[nH]c(=O)c3cc(F)ccc3c21` (single isomer, unassigned) [Compound 181, 4-(Difluoromethyl)-N-(8-fluoro-6-oxo-1,4,5,6-tetrahydro-2H-pyrano[3,4-c]isoquinolin-1-yl)-N-methyl-1H-indole-2-carboxamide], 5.26. Same read-out and setting: the result for `CN(C(=O)c1cc2c(C(F)F)cccc2[nH]1)C1COCc2[nH]c(=O)c3cc(F)ccc3c21` (single isomer, unassigned) [Compound 182, 4-(Difluoromethyl)-N-(8-fluoro-6-oxo-1,4,5,6-tetrahydro-2H-pyrano[3,4-c]isoquinolin-1-yl)-N-methyl-1H-indole-2-carboxamide] reads 6.12; that for `CN(C(=O)c1cc(F)c(C(F)F)c(F)c1)C1CNCc2[nH]c(=O)c3cc(F)c(F)cc3c21` (single isomer, unassigned) [Compound 184, N-(8,9-Difluoro-6-oxo-1,2,3,4,5,6-hexahydrobenzo[c][1,7]naphthyridin-1-yl)-4-(difluoromethyl)-3,5-difluoro-N-methylbenzamide], 7.15. The same measure, in the same setting: the result for `CN(C(=O)c1cc(F)c(C(F)F)c(F)c1)C1CNCc2[nH]c(=O)c3cc(F)ccc3c21` (single isomer, unassigned) [Compound 185, 4-(Difluoromethyl)-3,5-difluoro-N-(8-fluoro-6-oxo-1,2,3,4,5,6-hexahydrobenzo[c][1,7]naphthyridin-1-yl)-N-methylbenzamide] reads 4.62; that for `CN(C(=O)c1cc(F)c(C(F)F)c(F)c1)C1CNCc2[nH]c(=O)c3cc(F)ccc3c21` (single isomer, unassigned) [Compound 186, 4-(Difluoromethyl)-3,5-difluoro-N-(8-fluoro-6-oxo-1,2,3,4,5,6-hexahydrobenzo[c][1,7]naphthyridin-1-yl)-N-methylbenzamide], 6.70. In the case of `CN(C(=O)c1cc2c(C(F)F)cccc2[nH]1)C1CNCc2[nH]c(=O)c3cc(F)c(F)cc3c21` (single isomer, unassigned) [Compound 207, N-(8,9-Difluoro-6-oxo-1,2,3,4,5,6-hexahydrobenzo[c][1,7]naphthyridin-1-yl)-4-(difluoromethyl)-N-methyl-1H-indole-2-carboxamide], the pEC50 is 5.25. On the same count and under the same terms, for `CN(C(=O)c1cc2c(C(F)F)cccc2[nH]1)C1CNCc2[nH]c(=O)c3cc(F)c(F)cc3c21` (single isomer, unassigned) [Compound 208, N-(8,9-Difluoro-6-oxo-1,2,3,4,5,6-hexahydrobenzo[c][1,7]naphthyridin-1-yl)-4-(difluoromethyl)-N-methyl-1H-indole-2-carboxamide] the value was 7.52; for `CN(C(=O)c1cc2c(C(F)F)cccc2[nH]1)C1CNCc2[nH]c(=O)c3cc(F)ccc3c21` (single isomer, unassigned) [Compound 209, N-(8-Fluoro-6-oxo-1,2,3,4,5,6-hexahydrobenzo[c][1,7]naphthyridin-1-yl)-4-(difluoromethyl)-N-methyl-1H-indole-2-carboxamide], 5.36; for `CN(C(=O)c1cc2c(C(F)F)cccc2[nH]1)C1CNCc2[nH]c(=O)c3cc(F)ccc3c21` (single isomer, unassigned) [Compound 210, N-(8-Fluoro-6-oxo-1,2,3,4,5,6-hexahydrobenzo[c][1,7]naphthyridin-1-yl)-4-(difluoromethyl)-N-methyl-1H-indole-2-carboxamide], 7.40. For `CN(C(=O)c1cc2cc(F)c(C(F)F)cc2[nH]1)C1COCc2[nH]c(=O)c3cc(F)ccc3c21` (single isomer, unassigned) [Compound 217, 6-(Difluoromethyl)-5-fluoro-N-(8-fluoro-6-oxo-1,4,5,6-tetrahydro-2H-pyrano[3,4-c]isoquinolin-1-yl)-N-methyl-1H-indole-2-carboxamide], the pEC50 is 6.06. The same measure, in the same setting: the result for `CN(C(=O)c1cc2cc(F)c(C(F)F)cc2[nH]1)C1COCc2[nH]c(=O)c3cc(F)ccc3c21` (single isomer, unassigned) [Compound 218, 6-(Difluoromethyl)-5-fluoro-N-(8-fluoro-6-oxo-1,4,5,6-tetrahydro-2H-pyrano[3,4-c]isoquinolin-1-yl)-N-methyl-1H-indole-2-carboxamide] reads 7.52; that for `CN(C(=O)c1cc2cc(F)c(C(F)F)cc2[nH]1)C1CNCc2[nH]c(=O)c3cc(F)c(F)cc3c21` (single isomer, unassigned) [Compound 220, N-(8,9-Difluoro-6-oxo-1,2,3,4,5,6-hexahydrobenzo[c][1,7]naphthyridin-1-yl)-6-(difluoromethyl)-5-fluoro-N-methyl-1H-indole-2-carboxamide], 5.61. On the same count and under the same terms, the result for `CN(C(=O)c1cc2cc(F)c(C(F)F)cc2[nH]1)C1CNCc2[nH]c(=O)c3cc(F)c(F)cc3c21` (single isomer, unassigned) [Compound 221, N-(8,9-Difluoro-6-oxo-1,2,3,4,5,6-hexahydrobenzo[c][1,7]naphthyridin-1-yl)-6-(difluoromethyl)-5-fluoro-N-methyl-1H-indole-2-carboxamide] reads 7.52. Still for that read-out and setting: the result for `CN(C(=O)c1cc2ccc(F)cn2c1)C1CNCc2[nH]c(=O)c3cc(F)c(F)cc3c21` (single isomer, unassigned) [Compound 222, N-(8,9-Difluoro-6-oxo-1,2,3,4,5,6-hexahydrobenzo[c][1,7]naphthyridin-1-yl)-6-fluoro-N-methylindolizine-2-carboxamide] reads 5.15; that for `CN(C(=O)c1cc2ccc(F)cn2c1)C1CNCc2[nH]c(=O)c3cc(F)c(F)cc3c21` (single isomer, unassigned) [Compound 223, N-(8,9-Difluoro-6-oxo-1,2,3,4,5,6-hexahydrobenzo[c][1,7]naphthyridin-1-yl)-6-fluoro-N-methylindolizine-2-carboxamide], 7.52; that for `CN(C(=O)c1cc2c(C(F)F)cc(F)cc2[nH]1)C1COCc2[nH]c(=O)c3cc(F)ccc3c21` (single isomer, unassigned) [Compound 238, 4-(Difluoromethyl)-6-fluoro-N-(8-fluoro-6-oxo-1,4,5,6-tetrahydro-2H-pyrano[3,4-c]isoquinolin-1-yl)-N-methyl-1H-indole-2-carboxamide], 5.85. Turning to `CN(C(=O)c1cc2c(C(F)F)cc(F)cc2[nH]1)C1COCc2[nH]c(=O)c3cc(F)ccc3c21` (single isomer, unassigned) [Compound 239, 4-(Difluoromethyl)-6-fluoro-N-(8-fluoro-6-oxo-1,4,5,6-tetrahydro-2H-pyrano[3,4-c]isoquinolin-1-yl)-N-methyl-1H-indole-2-carboxamide], the pEC50 was 8.00.

The same assay, now with this note: Hepatitis B virus, HepDE19, HepDE19 assay, inhibition of rcDNA formation, bDNA quantitation; read-out: DE-19bDNA EC50.
On to `CN(C(=O)c1cc(F)c(Cl)c(F)c1)C1CNCc2[nH]c(=O)c3cc(F)ccc3c21` (single isomer, unassigned) [Compound 176, 4-Chloro-3,5-difluoro-N-(8-fluoro-6-oxo-1,2,3,4,5,6-hexahydrobenzo[c][1,7]naphthyridin-1-yl)-N-methylbenzamide], for which the pEC50 is 4.71. On the same count and under the same terms, the result for `CN(C(=O)C(N)c1ccc(Cl)cc1)[C@@H]1COCc2[nH]c(=O)c3cc(F)c(F)cc3c21` (single isomer, unassigned) [Compound 199] reads 4.83; that for `CN(C(=O)C(N)c1cccc(Cl)c1)[C@@H]1COCc2[nH]c(=O)c3cc(F)c(F)cc3c21` (single isomer, unassigned) [Compound 202], 4.80.
